Laboratory results as given in patent US8796289B2 (AbbVie Inc., priority 2011, dated 2014).

biological target: GST-tagged-Wee1 kinase (Homo sapiens, UniProt P30291); test: Wee1 time-resolved fluorescence equilibrium binding assay (displacement of Oregon Green-labeled ATP-competitive kinase probe)
Experimental: Wee1 kinase was assayed using a time-resolved fluorescence equilibrium binding assay monitoring displacement of a rapidly reversible Oregon Green-labeled ATP-competitive kinase probe (N-(2-(2-(2-(4-(4-(5-chloro-4-(2-(1-hydroxycyclobutyl)thiazol-5-yl)-1H-pyrrolo[2,3-b]pyridin-2-yl)phenyl)piperazin-1-yl)ethoxy)ethoxy)ethyl)-2′,7′-difluoro-3′,6′-dihydroxy-3-oxo-3H-spiro[isobenzofuran-1,9′-xanthene]-5-carboxamide) by competitive Wee1 inhibitors.

Sequence of GST-tagged-Wee1 kinase (P30291 whole entry): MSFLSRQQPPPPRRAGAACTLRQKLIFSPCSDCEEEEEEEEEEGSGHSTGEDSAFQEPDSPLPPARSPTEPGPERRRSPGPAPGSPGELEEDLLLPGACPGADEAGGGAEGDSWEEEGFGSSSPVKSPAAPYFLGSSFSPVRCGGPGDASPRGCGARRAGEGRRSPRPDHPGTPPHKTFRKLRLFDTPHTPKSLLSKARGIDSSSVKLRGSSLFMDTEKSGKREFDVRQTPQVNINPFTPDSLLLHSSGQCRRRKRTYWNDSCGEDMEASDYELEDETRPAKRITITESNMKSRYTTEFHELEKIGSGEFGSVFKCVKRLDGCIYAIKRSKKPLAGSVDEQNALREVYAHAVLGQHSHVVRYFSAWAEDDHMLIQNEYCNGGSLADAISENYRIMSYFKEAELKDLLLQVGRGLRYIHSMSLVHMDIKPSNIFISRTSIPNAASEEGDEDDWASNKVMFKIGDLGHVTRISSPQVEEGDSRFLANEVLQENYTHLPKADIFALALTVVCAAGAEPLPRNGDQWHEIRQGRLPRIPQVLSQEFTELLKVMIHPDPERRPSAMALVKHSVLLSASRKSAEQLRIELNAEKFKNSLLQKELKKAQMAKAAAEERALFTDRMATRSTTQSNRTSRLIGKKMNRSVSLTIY

| Ki [nM] | SMILES |
| --- | --- |
| 1 | CN1CCN(c2ccc(Nc3ncc4c(=O)n(-c5ccccc5Cl)nc(-c5cccc(Br)c5)c4n3)cc2)CC1 [Example 65, 8-(3-bromophenyl)-6-(2-chlorophenyl)-2-{[4-(4-methylpiperazin-1-yl)phenyl]amino}pyrimido[4,5-d]pyridazin-5(6H)-one] |
| 4 | Cc1ccccc1-n1nc(-c2cccc(Br)c2)c2nc(Nc3ccc(N4CCN(C)CC4)cc3)ncc2c1=O [Example 66, 8-(3-bromophenyl)-6-(2-methylphenyl)-2-{[4-(4-methylpiperazin-1-yl)phenyl]amino}pyrimido[4,5-d]pyridazin-5(6H)-one] |
| 14 | CN1CCN(c2ccc(Nc3ncc4c(=O)n(-c5ccccc5)nc(-c5cccc(Br)c5)c4n3)cc2)CC1 [Example 67, 8-(3-bromophenyl)-2-{[4-(4-methylpiperazin-1-yl)phenyl]amino}-6-phenylpyrimido[4,5-d]pyridazin-5(6H)-one] |
| 14 | C=CCn1nc(-c2cccc(Br)c2)c2nc(Nc3ccc(N4CCN(C)CC4)cc3)ncc2c1=O [Example 68, 6-allyl-8-(3-bromophenyl)-2-{[4-(4-methylpiperazin-1-yl)phenyl]amino}pyrimido[4,5-d]pyridazin-5(6H)-one] |
| 0.06 | CN1CCN(c2ccc(Nc3ncc4c(=O)n(-c5c(Cl)cccc5Cl)nc(-c5ccco5)c4n3)cc2)CC1 [Example 69, 6-(2,6-dichlorophenyl)-8-(2-furyl)-2-{[4-(4-methylpiperazin-1-yl)phenyl]amino}pyrimido[4,5-d]pyridazin-5(6H)-one] |
| 0.1 | CN1CCN(c2ccc(Nc3ncc4c(=O)n(-c5c(Cl)cccc5Cl)nc(-c5cccs5)c4n3)cc2)CC1 [Example 70, 6-(2,6-dichlorophenyl)-2-{[4-(4-methylpiperazin-1-yl)phenyl]amino}-8-(2-thienyl)pyrimido[4,5-d]pyridazin-5(6H)-one] |
| 0.2 | Cc1ccccc1-c1nn(-c2c(Cl)cccc2Cl)c(=O)c2cnc(Nc3ccc(N4CCN(C)CC4)cc3)nc12 [Example 71, 6-(2,6-dichlorophenyl)-8-(2-methylphenyl)-2-{[4-(4-methylpiperazin-1-yl)phenyl]amino}pyrimido[4,5-d]pyridazin-5(6H)-one] |
| 0.5 | CN1CCN(c2ccc(Nc3ncc4c(=O)n(-c5c(Cl)cccc5Cl)nc(-c5cccc(Br)c5)c4n3)cc2)CC1 [Example 72, 8-(3-bromophenyl)-6-(2,6-dichlorophenyl)-2-{[4-(4-methylpiperazin-1-yl)phenyl]amino}pyrimido[4,5-d]pyridazin-5(6H)-one] |
| 3 | CN1CCN(c2ccc(Nc3ncc4c(=O)n(-c5ccccc5)nc(-c5cccc(Cl)n5)c4n3)cc2)CC1 [Example 73, 8-(6-chloropyridin-2-yl)-2-{[4-(4-methylpiperazin-1-yl)phenyl]amino}-6-phenylpyrimido[4,5-d]pyridazin-5(6H)-one] |
| 1 | CN1CCN(c2ccc(Nc3ncc4c(=O)n(-c5c(Cl)cccc5Cl)nc(C5CCCC5)c4n3)cc2)CC1 [Example 74, 8-cyclopentyl-6-(2,6-dichlorophenyl)-2-{[4-(4-methylpiperazin-1-yl)phenyl]amino}pyrimido[4,5-d]pyridazin-5(6H)-one] |
| 4 | CN1CCN(c2ccc(Nc3ncc4c(=O)n(-c5c(Cl)cccc5Cl)nc(-c5cccc(NNc6c(Cl)cccc6Cl)n5)c4n3)cc2)CC1 [Example 76, 6-(2,6-dichlorophenyl)-8-{6-[2-(2,6-dichlorophenyl)hydrazino]pyridin-2-yl}-2-{[4-(4-methylpiperazin-1-yl)phenyl]amino}pyrimido[4,5-d]pyridazin-5(6H)-one] |
| 48 | CN1CCN(c2ccc(Nc3ncc4c(=O)n(-c5ccccc5)nc(-c5cccnc5Cl)c4n3)cc2)CC1 [Example 78, 8-(2-chloropyridin-3-yl)-2-{[4-(4-methylpiperazin-1-yl)phenyl]amino}-6-phenylpyrimido[4,5-d]pyridazin-5(6H)-one] |
| 710 | CCOc1ncccc1-c1nn(-c2ccccc2)c(=O)c2cnc(Nc3ccc(N4CCN(C)CC4)cc3)nc12 [Example 79, 8-(2-ethoxypyridin-3-yl)-2-{[4-(4-methylpiperazin-1-yl)phenyl]amino}-6-phenylpyrimido[4,5-d]pyridazin-5(6H)-one] |
| 27 | CN1CCN(c2ccc(Nc3ncc4c(=O)n(-c5ccccc5Cl)nc(-c5cccnc5Cl)c4n3)cc2)CC1 [Example 80, 6-(2-chlorophenyl)-8-(2-chloropyridin-3-yl)-2-{[4-(4-methylpiperazin-1-yl)phenyl]amino}pyrimido[4,5-d]pyridazin-5(6H)-one] |
| 4 | CN1CCN(c2ccc(Nc3ncc4c(=O)n(-c5c(Cl)cccc5Cl)nc(-c5cccnc5Cl)c4n3)cc2)CC1 [Example 81, 8-(2-chloropyridin-3-yl)-6-(2,6-dichlorophenyl)-2-{[4-(4-methylpiperazin-1-yl)phenyl]amino}pyrimido[4,5-d]pyridazin-5(6H)-one] |
| 9 | CN1CCN(c2ccc(Nc3ncc4c(=O)n(-c5ccccc5)nc(-c5cccc(F)c5)c4n3)cc2)CC1 [Example 82, 8-(3-fluorophenyl)-2-{[4-(4-methylpiperazin-1-yl)phenyl]amino}-6-phenylpyrimido[4,5-d]pyridazin-5(6H)-one] |
| 0.2 | CN1CCN(c2ccc(Nc3ncc4c(=O)n(-c5ccccc5Cl)nc(-c5cccc(F)c5)c4n3)cc2)CC1 [Example 83, 6-(2-chlorophenyl)-8-(3-fluorophenyl)-2-{[4-(4-methylpiperazin-1-yl)phenyl]amino}pyrimido[4,5-d]pyridazin-5(6H)-one] |
| 0.1 | CN1CCN(c2ccc(Nc3ncc4c(=O)n(-c5c(Cl)cccc5Cl)nc(-c5cccc(F)c5)c4n3)cc2)CC1 [Example 84, 6-(2,6-dichlorophenyl)-8-(3-fluorophenyl)-2-{[4-(4-methylpiperazin-1-yl)phenyl]amino}pyrimido[4,5-d]pyridazin-5(6H)-one] |
| 24.7 | CN1CCN(c2ccc(Nc3ncc4c(=O)n(-c5ccccc5)nc(-c5cnn(C)c5)c4n3)cc2)CC1 [Example 85, 2-{[4-(4-methylpiperazin-1-yl)phenyl]amino}-8-(1-methyl-1H-pyrazol-4-yl)-6-phenylpyrimido[4,5-d]pyridazin-5(6H)-one] |
| 0.1 | CN1CCN(c2ccc(Nc3ncc4c(=O)n(-c5c(Cl)cccc5Cl)nc(-c5cnn(C)c5)c4n3)cc2)CC1 [Example 87, 6-(2,6-dichlorophenyl)-2-{[4-(4-methylpiperazin-1-yl)phenyl]amino}-8-(1-methyl-1H-pyrazol-4-yl)pyrimido[4,5-d]pyridazin-5(6H)-one] |
| 5 | CN1CCN(c2ccc(Nc3ncc4c(=O)n(-c5c(Cl)cccc5Cl)nc(-c5cccc(O)n5)c4n3)cc2)CC1 [Example 88, 6-(2,6-dichlorophenyl)-8-(6-hydroxypyridin-2-yl)-2-{[4-(4-methylpiperazin-1-yl)phenyl]amino}pyrimido[4,5-d]pyridazin-5(6H)-one] |
| 0.07 | CN1CCN(c2ccc(Nc3ncc4c(=O)n(-c5c(Cl)cccc5Cl)nc(-c5cccc(C#N)c5)c4n3)cc2)CC1 [Example 89, 3-[6-(2,6-dichlorophenyl)-2-{[4-(4-methylpiperazin-1-yl)phenyl]amino}-5-oxo-5,6-dihydropyrimido[4,5-d]pyridazin-8-yl]benzonitrile] |
| 0.2 | CN1CCN(c2ccc(Nc3ncc4c(=O)n(-c5c(Cl)cccc5Cl)nc(-c5cccc(N(C)C)c5)c4n3)cc2)CC1 [Example 90, 6-(2,6-dichlorophenyl)-8-[3-(dimethylamino)phenyl]-2-{[4-(4-methylpiperazin-1-yl)phenyl]amino}pyrimido[4,5-d]pyridazin-5(6H)-one] |
| 0.3 | CN1CCN(c2ccc(Nc3ncc4c(=O)n(-c5c(Cl)cccc5Cl)nc(-c5cccc(-c6c[nH]cn6)c5)c4n3)cc2)CC1 [Example 91, 6-(2,6-dichlorophenyl)-8-[3-(1H-imidazol-4-yl)phenyl]-2-{[4-(4-methylpiperazin-1-yl)phenyl]amino}pyrimido[4,5-d]pyridazin-5(6H)-one] |
| 8 | CN1CCN(c2ccc(Nc3ncc4c(=O)n(-c5c(Cl)cccc5Cl)nc(-c5cccc(-c6ccc[nH]6)c5)c4n3)cc2)CC1 [Example 92, 6-(2,6-dichlorophenyl)-2-{[4-(4-methylpiperazin-1-yl)phenyl]amino}-8-[3-(1H-pyrrol-2-yl)phenyl]pyrimido[4,5-d]pyridazin-5(6H)-one] |
| 0.1 | CN1CCN(c2ccc(Nc3ncc4c(=O)n(-c5c(Cl)cccc5Cl)nc(-c5cccc(N6CCCCC6=O)c5)c4n3)cc2)CC1 [Example 93, 6-(2,6-dichlorophenyl)-2-{[4-(4-methylpiperazin-1-yl)phenyl]amino}-8-[3-(2-oxopiperidin-1-yl)phenyl]pyrimido[4,5-d]pyridazin-5(6H)-one] |
| 0.5 | CN1CCN(c2ccc(Nc3ncc4c(=O)n(-c5ccccc5Cl)nc(-c5ccoc5)c4n3)cc2)CC1 [Example 94, 6-(2-chlorophenyl)-8-(3-furyl)-2-{[4-(4-methylpiperazin-1-yl)phenyl]amino}pyrimido[4,5-d]pyridazin-5(6H)-one] |
| 0.2 | CN1CCN(c2ccc(Nc3ncc4c(=O)n(-c5ccccc5Cl)nc(-c5ccsc5)c4n3)cc2)CC1 [Example 96, 6-(2-chlorophenyl)-2-{[4-(4-methylpiperazin-1-yl)phenyl]amino}-8-(3-thienyl)pyrimido[4,5-d]pyridazin-5(6H)-one] |
| 0.06 | CN1CCN(c2ccc(Nc3ncc4c(=O)n(-c5c(Cl)cccc5Cl)nc(-c5ccsc5)c4n3)cc2)CC1 [Example 97, 6-(2,6-dichlorophenyl)-2-{[4-(4-methylpiperazin-1-yl)phenyl]amino}-8-(3-thienyl)pyrimido[4,5-d]pyridazin-5(6H)-one] |
| 0.5 | CN1CCN(c2ccc(Nc3ncc4c(=O)n(-c5ccccc5Cl)nc(-c5cccnc5)c4n3)cc2)CC1 [Example 98, 6-(2-chlorophenyl)-2-{[4-(4-methylpiperazin-1-yl)phenyl]amino}-8-(pyridin-3-yl)pyrimido[4,5-d]pyridazin-5(6H)-one] |
